Results from patent publication US11352371B2, “Thienopyrimidine derivatives as ACC inhibitors and uses thereof” (Gilead Sciences, Inc., priority 2019, dated 2022).

The molecules below were run on HepG2 cells (assay: In vitro De Novo Lipogenesis (DNL) assay, 13C-acetate incorporation into palmitic acid). Conditions: 1 hour preincubation, 24 hours with 10 mM 13C-labeled acetate.
Assay type: cell-based
Protocol: De Novo Lipogenesis (DNL) was measured in vitro in HepG2 cells by quantifying the incorporation of ^13C-labeled acetate into palmitic acid.
HepG2 cells were plated in growth medium (DMEM (Corning cat #15-018-CM) supplemented with 10% FBS (HyClone cat #SH30071-03), and 1× penicillin, streptomycin, glutamine (Corning cat #30-009-CI)) at 10,000 cells/well in a 384-well cell culture-treated plate (Greiner cat #781091). The cells were then incubated overnight at 37° C., 5% CO2. The next day, the cells were washed twice with sterile DPBS (Corning cat #21-031-CM) and the culture medium was changed to fresh growth medium. The compounds of interest were dosed to cells, followed by a 1 hour incubation at 37° C., 5% CO2. ^13C-labeled acetate (Sigma-Aldrich cat #279315-1G) was added to the culture medium at a concentration of 10 mM and the cells were incubated for 24 hours at 37° C., 5% CO2.
In order to analyze the lipid content of the HepG2 cells, the culture medium was removed and the cells were lysed by adding 30 μL of 0.1 M NaOH. After 5 minutes of incubation at room temperature, 15 μL of cell lysate was transferred to a 384-well deep-well plate (Sigma-Aldrich cat #BR701355-48EA) containing 15 μL of 7.3% KOH in ethanol and mixed. This plate was sealed and incubated at 70° C. for 4 hours to hydrolyze the lipids to free fatty acids. 100 μL of acetonitrile was then added and the plate was spun at 3,700 g for 20 minutes to separate the organic and aqueous phases. 50 μL from the top (organic) phase was transferred to a new 384-well plate (NUNC cat #264573) and the samples were analyzed by mass spectrometry using a RapidFire coupled to a QTOF mass spectrometer. The sum of the area under curve (AUC) for palmitate containing 3 to 7 ^13C was normalized with the AUC of oleate and plotted against compound concentration to determine the potency of ACC inhibitors. […]

Molecule | EC50
2-(1-((R)-2-(((1R,3s,5S)-8-oxabicyclo[3.2.1]octan-3-yl)oxy)-2-(2-methoxyphenyl)ethyl)-5-methyl-6-(oxazol-2-yl)-2,4-dioxo-1,4-dihydrothieno[2,3-d]pyrimidin-3 (2H)-yl)-N-(tert-butylsulfonyl)-2-methylpropanamide [Example 3] | 1.5 nM
COc1ccccc1[C@H](Cn1c(=O)n(C(C)(C)C(=O)NS(=O)(=O)C2CC2)c(=O)c2c(C)c(-c3ncco3)sc21)O[C@@H]1C[C@H]2CC[C@@H](C1)O2 [Example 4, 2-(1-((R)-2-(((1R,3s,5S)-8-oxabicyclo[3.2.1]octan-3-yl)oxy)-2-(2-methoxyphenyl)ethyl)-5-methyl-6-(oxazol-2-yl)-2,4-dioxo-1,4-dihydrothieno[2,3-d]pyrimidin-3 (2H)-yl)-N-(cyclopropylsulfonyl)-2-methylpropanamide] | 1.7 nM

Same assay, conditions: Homo sapiens, 1 hour preincubation, 24 hours with 10 mM 13C-labeled acetate

Molecule | EC50
COc1ccccc1[C@H](Cn1c(=O)n(C(C)(C)C(=O)NS(=O)(=O)C2(C(F)F)CC2)c(=O)c2c(C)c(-c3ncco3)sc21)O[C@@H]1C[C@H]2CC[C@@H](C1)O2 [Example 2, 2-(1-((R)-2-(((1R,3s,5S)-8-oxabicyclo[3.2.1]octan-3-yl)oxy)-2-(2-methoxyphenyl)ethyl)-5-methyl-6-(oxazol-2-yl)-2,4-dioxo-1,4-dihydrothieno[2,3-d]pyrimidin-3(2H)-yl)-N-((1-(difluoromethyl)cyclopropyl)sulfonyl)-2-methylpropanamide] | 5.9 nM
COc1ccc(F)cc1[C@H](Cn1c(=O)n(C(C)(C)C(=O)NS(=O)(=O)C2(C)CC2)c(=O)c2c(C)c(-c3ncco3)sc21)O[C@@H]1C[C@H]2CC[C@@H](C1)O2 [Example 5, 2-(1-((R)-2-(((1R,3s,5S)-8-oxabicyclo[3.2.1]octan-3-yl)oxy)-2-(5-fluoro-2-methoxyphenyl)ethyl)-5-methyl-6-(oxazol-2-yl)-2,4-dioxo-1,4-dihydrothieno[2,3-d]pyrimidin-3(2H)-yl)-2-methyl-N-((1-methylcyclopropyl)sulfonyl)propanamide] | 2.9 nM
Cc1c(-c2ncco2)sc2c1c(=O)n(C(C)(C)C(=O)NS(=O)(=O)C1CC1)c(=O)n2C[C@H](O[C@@H]1C[C@H]2CC[C@@H](C1)O2)c1cc(F)ccc1OC(F)F [Example 7, 2-(1-((R)-2-(((1R,3s,5S)-8-oxabicyclo[3.2.1]octan-3-yl)oxy)-2-(2-(difluoromethoxy)-5-fluorophenyl)ethyl)-5-methyl-6-(oxazol-2-yl)-2,4-dioxo-1,4-dihydrothieno[2,3-d]pyrimidin-3(2H)-yl)-N-(cyclopropylsulfonyl)-2-methylpropanamide] | 7.6 nM
Cc1c(-c2ncco2)sc2c1c(=O)n(C(C)(C)C(=O)NS(=O)(=O)C(C)(C)C)c(=O)n2C[C@H](O[C@@H]1C[C@H]2CC[C@@H](C1)O2)c1cc(F)ccc1OC(F)F [Example 8, 2-(1-((R)-2-(((1R,3s,5S)-8-oxabicyclo[3.2.1]octan-3-yl)oxy)-2-(2-(difluoromethoxy)-5-fluorophenyl)ethyl)-5-methyl-6-(oxazol-2-yl)-2,4-dioxo-1,4-dihydrothieno[2,3-d]pyrimidin-3(2H)-yl)-N-(tert-butylsulfonyl)-2-methylpropanamide] | 7 nM
Cc1c(-c2ncco2)sc2c1c(=O)n(C(C)(C)C(=O)NS(=O)(=O)c1ccccn1)c(=O)n2C[C@H](O[C@@H]1C[C@H]2CC[C@@H](C1)O2)c1cc(F)ccc1OC(F)F [Example 9, 2-(1-((R)-2-(((1R,3s,5S)-8-oxabicyclo[3.2.1]octan-3-yl)oxy)-2-(2-(difluoromethoxy)-5-fluorophenyl)ethyl)-5-methyl-6-(oxazol-2-yl)-2,4-dioxo-1,4-dihydrothieno[2,3-d]pyrimidin-3(2H)-yl)-2-methyl-N-(pyridin-2-ylsulfonyl)propanamide] | 215 nM
Cc1c(-c2ncco2)sc2c1c(=O)n(C1(C(=O)NS(=O)(=O)C3(C)CC3)CC1)c(=O)n2C[C@H](O[C@@H]1C[C@H]2CC[C@@H](C1)O2)c1cc(F)ccc1OC(F)F [Example 10, 1-(1-((R)-2-(((1R,3s,5S)-8-oxabicyclo[3.2.1]octan-3-yl)oxy)-2-(2-(difluoromethoxy)-5-fluorophenyl)ethyl)-5-methyl-6-(oxazol-2-yl)-2,4-dioxo-1,4-dihydrothieno[2,3-d]pyrimidin-3(2H)-yl)-N-((1-methylcyclopropyl)sulfonyl)cyclopropane-1-carboxamide] | 48.3 nM
Cc1c(-c2ncco2)sc2c1c(=O)n(C1(C(=O)NS(=O)(=O)C(C)(C)C)CC1)c(=O)n2C[C@H](O[C@@H]1C[C@H]2CC[C@@H](C1)O2)c1cc(F)ccc1OC(F)F [Example 11, 1-(1-((R)-2-(((1R,3s,5S)-8-oxabicyclo[3.2.1]octan-3-yl)oxy)-2-(2-(difluoromethoxy)-5-fluorophenyl)ethyl)-5-methyl-6-(oxazol-2-yl)-2,4-dioxo-1,4-dihydrothieno[2,3-d]pyrimidin-3(2H)-yl)-N-(tert-butylsulfonyl)cyclopropane-1-carboxamide] | 66.2 nM
Cc1c(-c2ncco2)sc2c1c(=O)n(C1(C(=O)NS(=O)(=O)C(C)(C)C)CC1)c(=O)n2C[C@H](O[C@@H]1C[C@H]2CC[C@@H](C1)O2)c1ccccc1OC(F)F [Example 13, 1-(1-((R)-2-(((1R,3s,5S)-8-oxabicyclo[3.2.1]octan-3-yl)oxy)-2-(2-(difluoromethoxy)phenyl)ethyl)-5-methyl-6-(oxazol-2-yl)-2,4-dioxo-1,4-dihydrothieno[2,3-d]pyrimidin-3(2H)-yl)-N-(tert-butylsulfonyl)cyclopropane-1-carboxamide] | 882 nM
Cc1c(-c2ncco2)sc2c1c(=O)n(C1(C(=O)NS(=O)(=O)C3(C)CC3)CC1)c(=O)n2C[C@H](O[C@@H]1C[C@H]2CC[C@@H](C1)O2)c1ccccc1OC(F)F [Example 14, 1-(1-((R)-2-(((1R,3s,5S)-8-oxabicyclo[3.2.1]octan-3-yl)oxy)-2-(2-(difluoromethoxy)phenyl)ethyl)-5-methyl-6-(oxazol-2-yl)-2,4-dioxo-1,4-dihydrothieno[2,3-d]pyrimidin-3(2H)-yl)-N-((1-methylcyclopropyl)sulfonyl)cyclopropane-1-carboxamide] | 29.8 nM
Cc1c(-c2ncco2)sc2c1c(=O)n([C@@H](C)C(=O)NS(=O)(=O)C1(C)CC1)c(=O)n2C[C@H](O[C@@H]1C[C@H]2CC[C@@H](C1)O2)c1cc(F)ccc1OC(F)F [Example 15, (S)-2-(1-((R)-2-(((1R,3s,5S)-8-oxabicyclo[3.2.1]octan-3-yl)oxy)-2-(2-(difluoromethoxy)-5-fluorophenyl)ethyl)-5-methyl-6-(oxazol-2-yl)-2,4-dioxo-1,4-dihydrothieno[2,3-d]pyrimidin-3(2H)-yl)-N-((1-methylcyclopropyl)sulfonyl)propanamide] | 2000 nM
COc1ccccc1[C@H](Cn1c(=O)n([C@@H](C)C(=O)NS(=O)(=O)C2(C)CC2)c(=O)c2c(C)c(-c3ncco3)sc21)O[C@@H]1C[C@H]2CC[C@@H](C1)O2 [Example 16, (S)-2-(1-((R)-2-(((1R,3s,5S)-8-oxabicyclo[3.2.1]octan-3-yl)oxy)-2-(2-methoxyphenyl)ethyl)-5-methyl-6-(oxazol-2-yl)-2,4-dioxo-1,4-dihydrothieno[2,3-d]pyrimidin-3(2H)-yl)-N-((1-methylcyclopropyl)sulfonyl)propanamide] | 1.9 nM
COc1ccccc1[C@H](Cn1c(=O)n([C@@H](C)C(=O)NS(=O)(=O)C(C)(C)C)c(=O)c2c(C)c(-c3ncco3)sc21)O[C@@H]1C[C@H]2CC[C@@H](C1)O2 [Example 17, (S)-2-(1-((R)-2-(((1R,3s,5S)-8-oxabicyclo[3.2.1]octan-3-yl)oxy)-2-(2-methoxyphenyl)ethyl)-5-methyl-6-(oxazol-2-yl)-2,4-dioxo-1,4-dihydrothieno[2,3-d]pyrimidin-3(2H)-yl)-N-(tert-butylsulfonyl)propanamide] | 41.1 nM
COc1ccccc1[C@H](Cn1c(=O)n([C@H](C)C(=O)NS(=O)(=O)C2(C)CC2)c(=O)c2c(C)c(-c3ncco3)sc21)O[C@@H]1C[C@H]2CC[C@@H](C1)O2 [Example 18, (R)-2-(1-((R)-2-(((1R,3s,5S)-8-oxabicyclo[3.2.1]octan-3-yl)oxy)-2-(2-methoxyphenyl)ethyl)-5-methyl-6-(oxazol-2-yl)-2,4-dioxo-1,4-dihydrothieno[2,3-d]pyrimidin-3(2H)-yl)-N-((1-methylcyclopropyl)sulfonyl)propanamide] | 1 nM
COc1ccccc1[C@H](Cn1c(=O)n(C(C)(C)C(=O)NS(=O)(=O)C2(C)CC2)c(=O)c2c(C)c(-n3nccn3)sc21)O[C@@H]1C[C@H]2CC[C@@H](C1)O2 [Example 19, 2-(1-((R)-2-(((1R,3s,5S)-8-oxabicyclo[3.2.1]octan-3-yl)oxy)-2-(2-methoxyphenyl)ethyl)-5-methyl-2,4-dioxo-6-(2H-1,2,3-triazol-2-yl)-1,4-dihydrothieno[2,3-d]pyrimidin-3(2H)-yl)-2-methyl-N-((1-methylcyclopropyl)sulfonyl)propanamide] | 1 nM
